For 22 molecules, T/C results are on record in PubChem BioAssay AID248 (DTP/NCI, 2004).

The test relates to L1210 leukemia ip in BDF1 mice, survival T/C. Description: NCI In Vivo Anticancer Drug Screen. Data for tumor model L1210 Leukemia (intraperitoneal) in B6D2F1 (BDF1) mice. Particulars: endpoint: mean survival time, higher = longer survival. The gist of the method:
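In this screen, tumor-bearing mice given compound are compared to those given vehicle, and their survival values are reported as a treated-to-control quotient.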

[1] abbreviates: dose: 100.0 mg/kg/injection, schedule: Q04DX003 (ip), vehicle: Klucel (hydroxypropylcellulose) (HPC).
The mark [2] stands for this setting: dose: 200.0 mg/kg/injection, schedule: Q04DX003 (ip), vehicle: Klucel (hydroxypropylcellulose) (HPC).
[3] abbreviates: dose: 400.0 mg/kg/injection, schedule: Q04DX003 (ip), vehicle: Klucel (hydroxypropylcellulose) (HPC).
[4] abbreviates: dose: 50.0 mg/kg/injection, schedule: Q01DX001 (ip), vehicle: carboxymethylcellulose (CMC).
[5] abbreviates: dose: 100.0 mg/kg/injection, schedule: Q01DX001 (ip), vehicle: carboxymethylcellulose (CMC).
[6] abbreviates: dose: 400.0 mg/kg/injection, schedule: Q01DX001 (ip), vehicle: carboxymethylcellulose (CMC).
Where [7] appears, read: dose: 100.0 mg/kg/injection, schedule: Q01DX009 (ip), vehicle: Klucel (hydroxypropylcellulose) (HPC).
Where [8] appears, read: dose: 200.0 mg/kg/injection, schedule: Q01DX009 (ip), vehicle: Klucel (hydroxypropylcellulose) (HPC).
The mark [9] stands for this setting: dose: 400.0 mg/kg/injection, schedule: Q01DX009 (ip), vehicle: Klucel (hydroxypropylcellulose) (HPC).
The mark [10] stands for this setting: dose: 50.0 mg/kg/injection, schedule: Q01DX009 (ip), vehicle: saline.
The mark [11] stands for this setting: dose: 100.0 mg/kg/injection, schedule: Q01DX009 (ip), vehicle: saline.
Where [12] appears, read: dose: 100.0 mg/kg/injection, schedule: Q04DX002 (ip), vehicle: saline.
Setting [13] is: dose: 100.0 mg/kg/injection, schedule: Q04DX003 (ip), vehicle: saline with Tween-80.
Where [14] appears, read: dose: 200.0 mg/kg/injection, schedule: Q04DX003 (ip), vehicle: saline with Tween-80.
[15] abbreviates: dose: 400.0 mg/kg/injection, schedule: Q04DX003 (ip), vehicle: saline with Tween-80.

Several values for one entry are separate records, joined by “and”; a condition that tells them apart may be missing. Equal values may be shown once. Toxic doses and inconclusive results are not listed.

Consider `O=C(Nc1cccc(F)c1)OCCOc1ccccc1`, for which the T/C runs as follows: (dose: 100.0 mg/kg/injection, schedule: Q01DX009 (ip), vehicle: gum acacia) 93 % of control; (dose: 200.0 mg/kg/injection, schedule: Q01DX009 (ip), vehicle: gum acacia) 102 % of control; (dose: 400.0 mg/kg/injection, schedule: Q01DX009 (ip), vehicle: gum acacia) 96 % of control.
`CCCCN(CCCC)/C(=C/C(=O)OC)C(=O)OC`: the T/C under setting [1] was 94 % of control, the T/C under setting [2] is 100 % of control and the T/C under setting [3] is 94 % of control.
Turning to `CC(=O)Nc1ncc(Oc2ccc(Cl)cc2Cl)c(=O)[nH]1`, the T/C is 102 % of control under setting [4]; 119 % of control under setting [5]; 96 % of control (dose: 200.0 mg/kg/injection, schedule: Q01DX001 (ip), vehicle: carboxymethylcellulose (CMC)); 102 % of control under setting [6].
`Cc1cc(C)c(C(O)C(=O)O)c(C)c1` (centres undefined): the T/C by setting is: (dose: 75.0 mg/kg/injection, schedule: Q01DX001 (ip), vehicle: saline) 108 % of control; (dose: 150.0 mg/kg/injection, schedule: Q01DX001 (ip), vehicle: saline) 97 % of control; (dose: 300.0 mg/kg/injection, schedule: Q01DX001 (ip), vehicle: saline) 101 % of control.
On to `Nc1nc(N)c2nc(CN(CCO)c3ccc(C(=O)NC(CCC(=O)O)C(=O)O)cc3)cnc2n1` (centres undefined), for which the T/C runs as follows: (dose: 1.0 mg/kg/injection, schedule: Q01DX009 (ip), vehicle: sodium bicarbonate) 151 % of control; (dose: 2.0 mg/kg/injection, schedule: Q01DX009 (ip), vehicle: Klucel (hydroxypropylcellulose) (HPC)) 174 % of control; (dose: 2.0 mg/kg/injection, schedule: Q01DX009 (ip), vehicle: sodium bicarbonate) 172 % of control; (dose: 4.0 mg/kg/injection, schedule: Q01DX009 (ip), vehicle: Klucel (hydroxypropylcellulose) (HPC)) 160 % of control; (dose: 4.0 mg/kg/injection, schedule: Q01DX009 (ip), vehicle: sodium bicarbonate) 178 % of control; (dose: 8.0 mg/kg/injection, schedule: Q01DX009 (ip), vehicle: Klucel (hydroxypropylcellulose) (HPC)) 151 % of control. Moreover, the T/C (dose: 8.0 mg/kg/injection, schedule: Q01DX009 (ip), vehicle: sodium bicarbonate) is 113 % of control; the T/C (dose: 16.0 mg/kg/injection, schedule: Q01DX009 (ip), vehicle: Klucel (hydroxypropylcellulose) (HPC)) was 108 % of control; the T/C (dose: 16.0 mg/kg/injection, schedule: Q01DX009 (ip), vehicle: sodium bicarbonate) is 89 % of control; the T/C (dose: 32.0 mg/kg/injection, schedule: Q01DX009 (ip), vehicle: Klucel (hydroxypropylcellulose) (HPC)) was 96 % of control.
On to `COc1ccc(N2C(=O)CC(Cl)C2=O)cc1` (centres undefined), for which the T/C reads like this: (dose: 22.0 mg/kg/injection, schedule: Q04DX003 (ip), vehicle: Klucel (hydroxypropylcellulose) (HPC)) 105 % of control; (dose: 44.0 mg/kg/injection, schedule: Q04DX003 (ip), vehicle: Klucel (hydroxypropylcellulose) (HPC)) 97 % of control; (dose: 87.5 mg/kg/injection, schedule: Q04DX003 (ip), vehicle: saline with Tween-80) 103 % of control; (dose: 88.0 mg/kg/injection, schedule: Q04DX003 (ip), vehicle: Klucel (hydroxypropylcellulose) (HPC)) 111 % of control.
Take `O=[N+]([O-])c1cccc(N=P(c2ccccc2)(c2ccccc2)c2ccccc2)c1`: the T/C reads like this: under setting [7], 95 % of control; under setting [1], 117 % of control; under setting [8], 95 % of control; under setting [2], 95 % of control; under setting [9], 88 % of control; under setting [3], 88 % of control.
As for `C=CCSCC(=O)Cl`, the T/C by setting is: (dose: 25.0 mg/kg/injection, schedule: Q01DX009 (ip), vehicle: saline) 102 % of control; under setting [10], 100 % of control; under setting [11], 110 % of control; under setting [12], 95 % of control.
Turning to `Cc1ccc(Nc2cc(C)nc(N)n2)cc1`, the T/C (dose: 25.0 mg/kg/injection, schedule: Q01DX Z (ip), vehicle: methylcellulose (MC)) is 90 % of control.
In the case of `CNC(=O)Oc1c([N+](=O)[O-])cc([N+](=O)[O-])c2ccccc12`, the T/C was 111 % of control (dose: 75.0 mg/kg/injection, schedule: Q01DX001 (ip), vehicle: other) and 102 % of control (dose: 150.0 mg/kg/injection, schedule: Q01DX001 (ip), vehicle: other).
Regarding `Cc1ccc(NC(=O)Oc2ccc(-c3ccccc3)cc2Br)c(Br)c1`, the T/C under setting [7] was 93 % of control, the T/C under setting [8] is 94 % of control and the T/C under setting [9] was 91 % of control.
Turning to `CCOC(=O)CNc1cc(N)ncn1`, the T/C under setting [10] is 105 % of control and the T/C under setting [11] is 112 % of control.
As for `Cc1c2cnccc2c(C)c2c1c1ccccc1n2CCOC(=O)c1ccccc1`, the T/C is, setting by setting: (dose: 50.0 mg/kg/injection, schedule: Q01DX009 (ip), vehicle: saline with Tween-80) 88 % of control; (dose: 100.0 mg/kg/injection, schedule: Q01DX009 (ip), vehicle: saline with Tween-80) 98 % of control and 88 % of control; under setting [13], 100 % of control; (dose: 200.0 mg/kg/injection, schedule: Q01DX009 (ip), vehicle: saline with Tween-80) 93 % of control; under setting [14], 97 % of control; (dose: 400.0 mg/kg/injection, schedule: Q01DX009 (ip), vehicle: saline with Tween-80) 95 % of control. Also, under setting [15], the T/C is 91 % of control.
On to `CCOC(=O)c1ccc(NC(=O)OC2CCCC2)cc1`, for which the T/C runs as follows: under setting [7], 100 % of control; under setting [8], 101 % of control; under setting [9], 92 % of control.
Turning to `S=c1nc[nH]c2nc(N=Nc3cc(Cl)ccc3Cl)[nH]c12`, the T/C is, setting by setting: (dose: 100.0 mg/kg/injection, schedule: Q01DX001 (ip), vehicle: saline) 101 % of control; (dose: 200.0 mg/kg/injection, schedule: Q01DX001 (ip), vehicle: saline) 97 % of control.
As to `Cc1nonc1-c1nc(SCC(=O)NN)n[nH]1`, the T/C (dose: 25.0 mg/kg/injection, schedule: Q04DX002 (ip), vehicle: Klucel (hydroxypropylcellulose) (HPC)) is 102 % of control and the T/C (dose: 50.0 mg/kg/injection, schedule: Q04DX002 (ip), vehicle: Klucel (hydroxypropylcellulose) (HPC)) was 98 % of control.
As to `O=C1c2ccccc2C(C2c3ccccc3C(=O)c3ccccc32)c2ccccc21`, the T/C under setting [4] was 89 % of control, the T/C under setting [5] was 89 % of control and the T/C under setting [6] was 86 % of control.
`O=C(O)C1Cc2c([nH]c3ccccc23)C(CCCCO)N1` (centres undefined): the T/C under setting [5] is 96 % of control.
Regarding `COC(=O)CCC(NC(=O)CCCNC(=O)OCc1ccccc1)C(=O)OC` (centres undefined), the T/C is, setting by setting: (dose: 100.0 mg/kg/injection, schedule: Q01DX001 (ip), vehicle: Klucel (hydroxypropylcellulose) (HPC)) 96 % of control; (dose: 100.0 mg/kg/injection, schedule: Q01DX001 (ip), vehicle: other) 97 % of control; under setting [7], 100 % of control; under setting [1], 94 % of control; (dose: 200.0 mg/kg/injection, schedule: Q01DX001 (ip), vehicle: Klucel (hydroxypropylcellulose) (HPC)) 98 % of control; (dose: 200.0 mg/kg/injection, schedule: Q01DX001 (ip), vehicle: other) 100 % of control. The T/C under setting [8] was 97 % of control; the T/C under setting [2] was 89 % of control; the T/C (dose: 400.0 mg/kg/injection, schedule: Q01DX001 (ip), vehicle: Klucel (hydroxypropylcellulose) (HPC)) was 89 % of control; the T/C (dose: 400.0 mg/kg/injection, schedule: Q01DX001 (ip), vehicle: other) was 103 % of control; the T/C under setting [9] is 100 % of control; the T/C under setting [3] was 86 % of control.
`O=C1NC(=S)S/C1=C\c1ccc(N(CCCl)CCCl)cc1`: the T/C is 96 % of control under setting [13], 93 % of control under setting [14] and 96 % of control under setting [15].
As to `COc1ccc(C=O)cc1Br`, the T/C was 102 % of control under setting [1], 97 % of control under setting [2] and 95 % of control under setting [3].
Regarding `NC(CCS)C(=O)O` (centres undefined), the T/C reads like this: under setting [12], 107 % of control; (dose: 200.0 mg/kg/injection, schedule: Q04DX002 (ip), vehicle: saline) 110 % of control; (dose: 400.0 mg/kg/injection, schedule: Q04DX002 (ip), vehicle: saline) 96 % of control.
